Data published in US9499502B2, “5-substituted iminothiazines and their mono- and dioxides as BACE inhibitors, compositions, and their use” (Merck Sharp & Dohme Corp., priority 2011, dated 2016).
Read-outs that look alike come from different tables or passages of the source.

What was measured:
[1] = biological target: soluble human BACE1 catalytic domain (Homo sapiens (Human), UniProt P56817); experiment: BACE1 HTRF FRET Assay; conditions: for inhibition at 10 µM: read-out: BACE1 inhibition, % Inh. at 10 μM, at 10 μM
soluble human BACE1 catalytic domain, sequence (P56817 75-416): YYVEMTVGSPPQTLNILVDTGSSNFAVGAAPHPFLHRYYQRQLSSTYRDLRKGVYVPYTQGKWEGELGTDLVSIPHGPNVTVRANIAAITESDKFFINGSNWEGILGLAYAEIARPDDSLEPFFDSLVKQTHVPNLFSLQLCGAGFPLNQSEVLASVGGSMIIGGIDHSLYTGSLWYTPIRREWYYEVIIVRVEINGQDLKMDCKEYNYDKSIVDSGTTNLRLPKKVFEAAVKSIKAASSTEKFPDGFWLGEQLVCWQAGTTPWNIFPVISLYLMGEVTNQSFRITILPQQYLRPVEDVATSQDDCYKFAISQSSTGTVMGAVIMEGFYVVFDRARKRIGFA

[2] = biological target: purified human autoBACE-2 (Homo sapiens (Human), UniProt Q9Y5Z0); experiment: BACE-2 Assay (BACE-HTRF assay); type: biochemical; conditions: for inhibition at 10 µM: read-out: inhibition of BACE2 at 10 μM
purified human autoBACE-2, sequence (Q9Y5Z0 63-473): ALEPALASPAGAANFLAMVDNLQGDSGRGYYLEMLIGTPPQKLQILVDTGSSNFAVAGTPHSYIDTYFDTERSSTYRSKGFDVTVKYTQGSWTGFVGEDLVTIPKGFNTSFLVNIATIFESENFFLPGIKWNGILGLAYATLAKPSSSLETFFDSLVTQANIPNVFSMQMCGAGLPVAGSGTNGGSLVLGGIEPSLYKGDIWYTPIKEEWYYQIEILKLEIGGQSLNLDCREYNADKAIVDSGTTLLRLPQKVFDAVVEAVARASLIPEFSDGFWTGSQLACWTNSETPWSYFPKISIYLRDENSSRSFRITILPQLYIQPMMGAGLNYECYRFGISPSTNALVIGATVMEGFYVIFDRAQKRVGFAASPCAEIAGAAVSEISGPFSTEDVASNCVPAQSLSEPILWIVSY
Description: Inhibitor IC50s at purified human autoBACE-2 are determined in a time-resolved endpoint proteolysis assay that measures hydrolysis of the QSY7-[…]-Eu-amide FRET peptide substrate (BACE-HTRF assay). […] DMSO is present at 5% final concentration in the assay. Following laser excitation of sample wells at 320 nm, the fluorescence signal at 620 nm is collected for 400 ms following a 50 μs delay on a RUBYstar HTRF plate reader (BMG Labtechnologies). Raw RFU data is normalized to maximum (1.0 nM BACE/DMSO) and minimum (no enzyme/DMSO) RFU values. […] The Ki values are calculated from the IC50 using the Cheng-Prusoff equation.

[3] = Ki calculated from IC50 using the Cheng-Prusoff equation, read-out: BACE2 Ki
[4] = read-out: BACE1 Ki, Ki calculated from IC50 using the Cheng-Prusoff equation

| Ki [2, 3] | Ki [1, 4] | SMILES | further results |
| --- | --- | --- | --- |
| ≤ 0.02 µM | – | CC1(C)C(=N)N[C@](C)(c2sc(-c3cc(F)cc(-c4cnco4)c3)cc2F)CS1(=O)=O [Example 27at] | Ki ([1]; read-out: BACE1 Ki): 0.026 µM |
| 0.012 µM | 0.0066 µM | COc1cnc(C(=O)Nc2cc(F)c(F)c([C@]3(C)CS(=O)(=O)C(C)(C)C(=N)N3)c2)cn1 [Example 9n] | – |
| – | – | COc1cccc([C@]2(C)C(=N)N[C@](C)(c3cc(F)ccc3F)CS2(=O)=O)c1 [Example 32e-b] | inhibition at 10 µM [1]: 22%; inhibition at 10 µM [2]: 1 to 24% |
| 0.009 µM | – | C[C@@]1(c2sc(-c3cccc(C#N)c3)cc2F)CS(=O)(=O)[C@@](C)(c2ccccc2F)C(=N)N1 [Example 27bs-a] | Ki ([1]; read-out: BACE1 Ki): 0.0683 µM |
| 0.5 to 10 µM | – | CC1(C)C(=N)N[C@](C)(c2cc(N)cc(F)c2F)CS1(=O)=O [Example 2A-5] | inhibition at 10 µM [1]: 51% |
| 0.101 to 0.7 µM | 0.123 µM | C[C@@]1(C2CCC2)C(=N)N[C@](C)(c2cc(NC(=O)c3ccc(C(F)(F)F)cn3)ccc2F)CS1(=O)=O [Example 9dz-b] | – |
| 0.011 to 0.1 µM | 0.0745 µM | C[C@@]1(c2cc(NC(=O)c3ccc(F)cn3)ccc2F)CS(=O)(=O)[C@](C)(CC(F)(F)F)C(=N)N1 [Example 9dp-b] | – |
| 0.011 to 0.1 µM | 0.187 µM | C[C@@]1(c2ccccn2)C(=N)N[C@](C)(c2cc(NC(=O)c3ccc(F)cn3)ccc2F)CS1(=O)=O [Example 9cv-b] | – |
| 0.011 to 0.1 µM | 0.0663 µM | C[C@@]1(C2CCC2)C(=N)N[C@](C)(c2cc(NC(=O)c3ccc(Cl)cn3)ccc2F)CS1(=O)=O [Example 9dw-b] | – |
| 2.9 µM | 0.718 µM | COc1cnc(C(=O)Nc2cc([C@]3(C)CS(=O)(=O)C(C)(C)C(=N)N3)c(F)cc2Br)cn1 [Example 9by] | – |
| 0.101 to 0.7 µM | 0.499 µM | COc1cnc(C(=O)Nc2ccc(F)c([C@]3(C)CS(=O)(=O)[C@](C)(C4CCC4)C(=N)N3)c2)cn1 [Example 9dy-b] | – |
| ≤ 0.02 µM | – | CC1(C)C(=N)N[C@](C)(c2sc(-c3cccc(-c4ncon4)c3)cc2F)CS1(=O)=O [Example 27ao] | Ki ([1]; read-out: BACE1 Ki): 0.1 µM |
| 0.022 µM | 0.069 µM | Cc1cnc(C(=O)Nc2cc(F)c(F)c([C@]3(C)CS(=O)(=O)C(C)(C)C(=N)N3)c2)cn1 [Example 9bo] | – |
| 0.005 µM | – | CC1(C)C(=N)N[C@](C)(c2cc(Nc3noc4cc(F)cnc34)ccc2F)CS1(=O)=O [Example 30b] | Ki ([1]; read-out: BACE1 Ki): 0.022 µM |
| – | – | C[C@@]1(c2ccccn2)C(=N)N[C@](C)(c2cc(N)ccc2F)CS1(=O)=O [Entry 77] | inhibition at 10 µM [1]: 25%; inhibition at 10 µM [2]: 29 to 47% |
| 0.011 to 0.1 µM | 0.224 µM | CC(C)[C@]1(C)C(=N)N[C@](C)(c2cc(NC(=O)c3ccc(F)cn3)ccc2F)CS1(=O)=O [Example 9ea-b] | – |
| 0.009 µM | 0.022 µM | CC1(C)C(=N)N[C@](C)(c2cc(NC(=O)c3ccc(Cl)cc3)cc(F)c2F)CS1(=O)=O [Example 9bi] | – |
| ≤ 0.01 µM | 0.0217 µM | CC1(C)C(=N)N[C@](C)(c2nc(NC(=O)c3cnc(Br)cn3)ccc2F)CS1(=O)=O [Example 9ck] | – |
| – | – | Cc1nc2ccc(CC3(C)C(=N)N[C@](C)(c4cc(F)ccc4F)CS3(=O)=O)cc2s1 (mixture of isomers) [32b-a and 32b-b] | inhibition at 10 µM [1]: 11%; inhibition at 10 µM [2]: 1 to 24% |
| ≤ 0.01 µM | – | COc1cccc2cc(-c3cc(Cl)c([C@]4(C)CS(=O)(=O)[C@@](C)(CC5CCOCC5)C(=N)N4)s3)[nH]c12 [Example 27bx] | Ki ([1]; read-out: BACE1 Ki): 0.018 µM |
| 0.011 to 0.1 µM | 0.0336 µM | C=CC[C@]1(C)C(=N)N[C@](C)(c2cc(NC(=O)c3cnc(OC)cn3)ccc2F)CS1(=O)=O [Example 9dm-b] | – |
| 0.011 to 0.1 µM | 0.198 µM | C[C@@]1(c2cccc(F)c2)C(=N)N[C@](C)(c2cc(NC(=O)c3ccc(F)cn3)ccc2F)CS1(=O)=O [Example 9da-b] | – |
| – | – | C[C@@]1(c2cccc(F)c2)C(=N)N[C@](C)(c2cc(N)ccc2F)CS1(=O)=O [Entry 61] | inhibition at 10 µM [1]: 27%; inhibition at 10 µM [2]: 29 to 47% |
| ≤ 0.02 µM | – | CC1(C)C(=N)N[C@](C)(c2sc(-c3cc(F)cc(-c4nnco4)c3)cc2F)CS1(=O)=O [Example 27as] | Ki ([1]; read-out: BACE1 Ki): 0.0094 µM |
| 0.011 to 0.1 µM | 0.0426 µM | COc1cnc(C(=O)Nc2ccc(F)c([C@]3(C)CS(=O)(=O)[C@](C)(CC4CC4)C(=N)N3)c2)cn1 [Example 9dk-b] | – |
| 0.101 to 0.7 µM | 0.307 µM | COc1ccc(C(=O)Nc2ccc(F)c([C@]3(C)CS(=O)(=O)[C@](C)(C4CCC4)C(=N)N3)c2)nc1 [Example 9dx-b] | – |
| 0.007 µM | – | C[C@]1(CC(F)(F)F)C(=N)N[C@](C)(c2sc(-c3cccc(C#N)c3)cc2F)CS1(=O)=O [Example 27bj-a] | Ki ([1]; read-out: BACE1 Ki): 0.0357 µM |

| Ki [2, 3] | Ki [1, 4] | SMILES | further results |
| --- | --- | --- | --- |
| – | – | C[C@@]1(c2cccc(C(F)(F)F)c2)C(=N)N[C@](C)(c2cc(N)ccc2F)CS1(=O)=O [Entry 69] | inhibition at 10 µM [1]: 17%; inhibition at 10 µM [2]: 29 to 47% |
| < 0.2 µM | – | CC1(C)C(=N)N[C@](C)(c2cc(-c3cccc(C#N)c3)ccc2F)CS1(=O)=O [compound 10] | inhibition at 1 µM ([1]; read-out: BACE1 % Inh. at 1 μM, at 1 μM): 36% |
| 0.011 to 0.1 µM | 0.0967 µM | COc1cnc(C(=O)Nc2ccc(F)c([C@]3(C)CS(=O)(=O)[C@](C)(C4CC4)C(=N)N3)c2)cn1 [Example 9cq-b] | – |
| ≤ 0.02 µM | – | COc1ccc(-c2nnc(-c3cc(F)c([C@]4(C)CS(=O)(=O)C(C)(C)C(=N)N4)s3)o2)cc1 [Example 27bh] | Ki ([1]; read-out: BACE1 Ki): 0.074 µM |
| 0.013 µM | 0.0189 µM | COc1ccc(C(=O)Nc2cc(F)c(F)c([C@]3(C)CS(=O)(=O)C(C)(C)C(=N)N3)c2F)nc1 [Example 9ac] | – |
| 0.011 to 0.1 µM | 0.0069 µM | COc1cnc(C(=O)Nc2ccc(F)c([C@]3(C)CS(=O)(=O)[C@@](C)(c4ccccn4)C(=N)N3)c2)cn1 [Example 9cy-a] | – |
| 0.101 to 0.7 µM | 0.229 µM | COc1cnc(C(=O)Nc2ccc(F)c([C@]3(C)CS(=O)(=O)[C@](C)(c4cccc(F)c4)C(=N)N3)c2)cn1 [Example 9dd-b] | – |
| – | – | C[C@@]1(c2cccc(F)c2)C(=N)N[C@](C)(c2sc(Br)cc2F)CS1(=O)=O [Entry 88] | inhibition at 10 µM [1]: 34%; inhibition at 10 µM [2]: 29 to 47% |
| 0.047 µM | 0.299 µM | CC1(C)C(=N)N[C@](C)(c2cc(NC(=O)C3CCC3(F)F)ccc2F)CS1(=O)=O (some centres unmarked) [Example 9aw] | – |
| 0.044 µM | 0.219 µM | COc1ccc(C(=O)Nc2ccc(F)c([C@]3(C)CS(=O)(=O)C(C)(C)C(=N)N3)n2)nn1 [Example 9ci] | – |
| 0.051 µM | 0.736 µM | CC1(C)C(=N)N[C@](C)(c2sc(C(=O)NCc3cccc(-c4ccon4)c3)cc2Cl)CS1(=O)=O [Example 22g] | – |
| 1.8 µM | 0.616 µM | CC1=NOC(CNC(=O)c2cc(Cl)c([C@]3(C)CS(=O)(=O)C(C)(C)C(=N)N3)s2)C1 (some centres unmarked) [Example 22f] | – |
| 0.059 µM | 0.0529 µM | COc1cnc(C(=O)Nc2ccc(F)c([C@]3(C)CS(=O)(=O)C(C)(C)C(=N)N3)c2F)cn1 [Example 9z] | – |
| 0.101 to 0.7 µM | 0.137 µM | COc1cnc(C(=O)Nc2ccc(F)c([C@]3(C)CS(=O)(=O)[C@](C)(CC(F)(F)F)C(=N)N3)c2)cn1 [Example 9dr-b] | – |
| 0.011 to 0.1 µM | 0.0149 µM | COc1cnc(C(=O)Nc2ccc(F)c([C@]3(C)CS(=O)(=O)[C@@](C)(C(C)C)C(=N)N3)c2)cn1 [Example 9ec-a] | – |
| – | – | C[C@@]1(c2cccc(OCc3ccccc3)c2)C(=N)N[C@](C)(c2cc(F)ccc2F)CS1(=O)=O [Example 34d-b] | inhibition at 10 µM [1]: 16%; inhibition at 10 µM [2]: 10% |
| 0.04 µM | 0.079 µM | CC(F)(F)C(=O)Nc1cc(F)c(F)c([C@]2(C)CS(=O)(=O)C(C)(C)C(=N)N2)c1 [Example 9bl] | – |
| – | – | Cc1nc2cc(CC3(C)C(=N)N[C@](C)(c4cc(F)ccc4F)CS3(=O)=O)ccc2s1 (some centres unmarked) [Example 32-a] | BACE1 inhibition, % Inh. at 10 μM ([1]; at 10 μM): 0% Inh at 10 μM; inhibition at 10 µM [2]: 1 to 24% |
| 0.011 to 0.1 µM | 0.0332 µM | C[C@@]1(c2cc(NC(=O)c3ccc(C(F)(F)F)cn3)ccc2F)CS(=O)(=O)[C@](C)(CC2CC2)C(=N)N1 [Example 9dl-b] | – |
| ≤ 0.01 µM | – | CC1(C)C(=N)N[C@](C)(c2sc(-c3cccc(C(F)(F)F)c3)cc2Cl)CS1(=O)=O [Example 27e] | Ki ([1]; read-out: BACE1 Ki): 0.0745 µM |
| 0.101 to 0.7 µM | 0.257 µM | COc1ccc(C(=O)Nc2ccc(F)c([C@]3(C)CS(=O)(=O)[C@](C)(C(C)C)C(=N)N3)c2)nc1 [Example 9eb-b] | – |
| 0.04 µM | 0.233 µM | CC1(C)C(=N)N[C@](C)(c2cc(NC(=O)C(F)F)cc(F)c2F)CS1(=O)=O [Example 9bd] | – |
| 0.011 to 0.1 µM | 0.0543 µM | COc1ccc(C(=O)Nc2ccc(F)c([C@]3(C)CS(=O)(=O)[C@](C)(CC(F)(F)F)C(=N)N3)c2)nc1 [Example 9dq-b] | – |
| 0.085 µM | 0.0942 µM | COc1cnc(C(=O)Nc2ccc(F)c([C@]3(C)CS(=O)(=O)C(C)(C)C(=N)N3)n2)cn1 [Example 9cg] | – |
| 0.011 µM | 0.025 µM | CC1(C)C(=N)N[C@](C)(c2cc(NC(=O)c3ccc(C(F)(F)F)cn3)cc(F)c2F)CS1(=O)=O [Example 9bf] | – |
| ≤ 0.02 µM | – | COc1cccc2cc(-c3cc(F)c([C@]4(C)CS(=O)(=O)C(C)(C)C(=N)N4)s3)[nH]c12 [Example 27an] | Ki ([1]; read-out: BACE1 Ki): 0.021 µM |

| SMILES | Ki [2, 3] | Ki [1, 4] | further results |
| --- | --- | --- | --- |
| CC1(C)C(=N)N[C@](C)(c2sc(Br)cc2Cl)CS1(=O)=O [Example 4-1] | 0.5 to 10 µM | – | Ki ([1]; read-out: BACE1 inhibition, Ki): 1.5 µM |
| C[C@@]1(c2ccc(F)cc2)C(=N)N[C@](C)(c2cc(NC(=O)c3ccc(F)cn3)ccc2F)CS1(=O)=O [Example 9df-b] | – | 0.165 µM | Ki [2]: 0.011 to 0.1 µM |
